Test results as given in ChEMBL document CHEMBL1137396, “Discovery of (1R,5S)-N-[3-amino-1-(cyclobutylmethyl)-2,3-dioxopropyl]- 3-[2(S)-[[[(1,1-dimethylethyl)amino]carbonyl]amino]-3,3-dimethyl-1-oxobutyl]- 6,6-dimethyl-3-azabicyclo[3.1.0]hexan-2(S)-carboxamide (SCH 503034), a selective, potent, orally bioavailable hepatitis C virus NS3 protease …” (J Med Chem, 2006).

Columns and labels:
[1] = AUC in rat at 10 mg/kg, po; format: ADME, organism-based; design: dose 10 mg/kg, route oral; conditions: plasma
Huh-5-2 = test: Cytotoxicity against hepatoma cell line containing HCV replicon measured as change in GAPDH RNA level; format: functional, Homo sapiens
[2] = Bioavailability in rat at 10 mg/kg, po; format: ADME, organism-based; conditions: in vivo
NS3 = NS3 (Hepatitis C virus, UniProt A3EZJ3); test: Binding affinity at HCV NS3 protease; design: species or system Hepatitis C virus subtype 1b
Sequence of NS3 (A3EZJ3 whole entry): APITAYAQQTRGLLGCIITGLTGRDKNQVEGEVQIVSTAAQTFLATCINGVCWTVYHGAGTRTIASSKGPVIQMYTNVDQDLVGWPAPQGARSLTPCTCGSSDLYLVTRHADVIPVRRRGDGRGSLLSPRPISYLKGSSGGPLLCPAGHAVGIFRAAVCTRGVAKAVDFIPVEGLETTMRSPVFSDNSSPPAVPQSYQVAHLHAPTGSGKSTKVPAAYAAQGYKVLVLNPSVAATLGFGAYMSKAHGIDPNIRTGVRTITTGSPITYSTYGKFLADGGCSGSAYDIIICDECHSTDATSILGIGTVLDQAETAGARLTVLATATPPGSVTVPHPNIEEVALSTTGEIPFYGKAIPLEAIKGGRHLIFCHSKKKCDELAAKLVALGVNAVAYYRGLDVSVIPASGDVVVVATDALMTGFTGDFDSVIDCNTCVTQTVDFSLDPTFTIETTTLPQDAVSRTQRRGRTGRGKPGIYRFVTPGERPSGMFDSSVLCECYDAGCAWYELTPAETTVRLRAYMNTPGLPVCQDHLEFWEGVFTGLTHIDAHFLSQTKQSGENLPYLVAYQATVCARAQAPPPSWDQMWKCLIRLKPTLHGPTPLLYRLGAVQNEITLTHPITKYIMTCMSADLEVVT

[3] = Selectivity for human neutrophil elastase (HNE) over HCV NS3 protease
Hepatocyte = test: Inhibition of HCV replication in hepatocytes measured by cellular replicon assay; format: functional; conditions: Hepatitis C virus
[4] = AUC in monkey at 3 mg/kg, po; conditions: rhesus monkey, plasma
[5] = Bioavailability in monkey at 3 mg/kg, po; conditions: rhesus monkey, in vivo
[6] = Bioavailability in dog at 2 mg/kg, po; format: ADME, organism-based, Canis lupus familiaris; conditions: in vivo
[7] = AUC in dog at 2 mg/kg, po; format: ADME, organism-based, Canis lupus familiaris; design: dose 2 mg/kg, route oral; conditions: plasma
[8] = AUC in monkey at 2 mg/kg, po; conditions: rhesus monkey, plasma
[9] = Bioavailability in monkey at 2 mg/kg, po; conditions: rhesus monkey, in vivo
[10] = AUC in dog at 3 mg/kg, po; format: ADME, organism-based, Canis lupus familiaris; design: dose 3 mg/kg, route oral; conditions: plasma
[11] = Bioavailability in dog at 3 mg/kg, po; format: ADME, organism-based, Canis lupus familiaris; conditions: in vivo
[12] = Bioavailability in mouse; format: ADME, organism-based; conditions: in vivo
[13] = Ratio of drug level in liver against plasma in rat; format: ADME, organism-based

| AUC [1] | bioavailability [2] | Ki (NS3) | Selectivity ratio [3] | bioavailability [6] | AUC [7] | AUC [8] | bioavailability [9] | Structure (SMILES) | Activity (Huh-5-2) | EC90 (Hepatocyte) | AUC [4] | bioavailability [5] | AUC [10] | bioavailability [11] | bioavailability [12] | Kp [13] |
| --- | --- | --- | --- | --- | --- | --- | --- | --- | --- | --- | --- | --- | --- | --- | --- | --- |
| 1.5 µM·h | 28% | 8 nM | 138 |  |  |  |  | CC(C)(C)OC(=O)N[C@H](C(=O)N1C[C@H]2[C@@H]([C@H]1C(=O)NC(CC1CCC1)C(=O)C(N)=O)C2(C)C)C1CCCCC1 (stereo not given in full) | >5 µM | 700 nM | 0.11 µM·h | 1% |  |  |  |  |
| 1 µM·h | 16% | 13 nM | 369 | 36% | 1.6 µM·h | 0.05 µM·h | 2% | CC(C)(C)NC(=O)N[C@H](C(=O)N1C[C@H]2[C@@H]([C@H]1C(=O)NC(CC1CC1)C(=O)C(N)=O)C2(C)C)C(C)(C)C (stereo not given in full) | >5 µM | 400 nM |  |  |  |  |  |  |

| Structure (SMILES) | AUC [1] | bioavailability [2] | Ki (NS3) | Selectivity ratio [3] | bioavailability [6] | AUC [7] | AUC [8] | bioavailability [9] | Activity (Huh-5-2) | EC90 (Hepatocyte) | AUC [4] | bioavailability [5] | AUC [10] | bioavailability [11] | bioavailability [12] | Kp [13] |
| --- | --- | --- | --- | --- | --- | --- | --- | --- | --- | --- | --- | --- | --- | --- | --- | --- |
| CC(C)(C)NC(=O)N[C@H](C(=O)N1C[C@H]2[C@@H]([C@H]1C(=O)NC(CC1CCC1)C(=O)C(N)=O)C2(C)C)C(C)(C)C (stereo not given in full) [BOCEPREVIR] | 1.52 µM·h | 26% | 14 nM | 2200 |  |  |  |  | >5 µM | 350 nM | 0.12 µM·h | 4% | 3.08 µM·h | 30% | 34% | 30 |
